Test results from patent US20230278996A1, “YKL-40 INHIBITORS AND THEIR THERAPEUTIC APPLICATIONS” (Molecure S.A., priority 2022, published 2023).
Counter-ions that a name gives are not always drawn.

Target: YKL-40 (Homo sapiens (Human), UniProt P36222)
Assay: YKL-40:4 assay, competitive chitin binding site AlphaScreen
Conditions: competition with biotinylated compound 4 (20 nM), YKL-40-histag 2.5 nM

Chain of YKL-40 (P36222 22-383): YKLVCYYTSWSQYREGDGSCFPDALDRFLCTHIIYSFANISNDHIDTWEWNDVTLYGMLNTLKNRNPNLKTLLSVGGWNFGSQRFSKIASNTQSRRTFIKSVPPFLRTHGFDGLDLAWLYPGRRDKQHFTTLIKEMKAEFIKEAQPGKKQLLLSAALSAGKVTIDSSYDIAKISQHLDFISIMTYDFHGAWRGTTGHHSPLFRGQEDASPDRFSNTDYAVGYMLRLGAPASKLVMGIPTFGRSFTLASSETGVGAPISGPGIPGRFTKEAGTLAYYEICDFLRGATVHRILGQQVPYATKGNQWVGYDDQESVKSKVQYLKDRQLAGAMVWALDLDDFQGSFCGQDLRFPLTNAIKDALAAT

Row | Structure (SMILES) | IC50 [µM]
1 | C[C@H](O)CN1C[C@H](Cc2ccc(Cl)cc2)N(C2CCN(c3ccccn3)CC2)C[C@@H]1C [compound 104, (S)-1-((2S,5S)-5-(4-chlorobenzyl)-2-methyl-4-(1-(pyridin-2-yl)piperidin-4-yl)piperazin-1-yl)propan-2-ol 2,2,2-trifluoroacetate] | < 0.1
2 | C[C@H](O)[C@H]1CN(C2CCN(c3ccccn3)CC2)[C@@H](Cc2ccc(Cl)cc2)CN1C [compound 105, (S)-1-((2R,5S)-5-(4-chlorobenzyl)-1-methyl-4-(1-(pyridin-2-yl)piperidin-4-yl)piperazin-2-yl)ethan-1-ol 2,2,2-trifluoroacetate] | < 0.1
3 | CO[C@H](C)CN1C[C@H](Cc2ccc(Cl)cc2)N(C2CCN(c3ccccn3)CC2)C[C@@H]1C [compound 107, (2S,5S)-2-(4-chlorobenzyl)-4-((R)-2-methoxypropyl)-5-methyl-1-(1-(pyridin-2-yl)piperidin-4-yl)piperazine 2,2,2-trifluoroacetate] | 0.1 to 1
4 | CO[C@@H]1CCN(C2CCN(c3ccccn3)CC2)[C@@H](Cc2ccc(Cl)cc2)C1 [compound 108, (2S,4R)-2-(4-chlorobenzyl)-4-methoxy-1′-(pyridin-2-yl)-1,4′-bipiperidine 2,2,2-trifluoroacetate] | < 0.1
5 | CO[C@H]1CCN(C2CCN(c3ccccn3)CC2)[C@@H](Cc2ccc(Cl)cc2)C1 [compound 109, (2S,4S)-2-(4-chlorobenzyl)-4-methoxy-1′-(pyridin-2-yl)-1,4′-bipiperidine 2,2,2-trifluoroacetate] | 0.1 to 1
6 | C[C@@H](O)[C@H]1CN(C2CCN(c3ccccn3)CC2)[C@@H](Cc2ccc(Cl)cc2)CN1C [compound 110, (R)-1-((2R,5S)-5-(4-chlorobenzyl)-1-methyl-4-(1-(pyridin-2-yl)piperidin-4-yl)piperazin-2-yl)ethan-1-ol] | < 0.1
7 | C[C@H]1CN(C2CCN(c3cc(Br)ccn3)CC2)[C@@H](Cc2ccc(Cl)cc2)CO1 [compound 113, (2S,5S)-4-(1-(4-bromopyridin-2-yl)piperidin-4-yl)-5-(4-chlorobenzyl)-2-methylmorpholine 2,2,2-trifluoroacetate] | 0.1 to 1
8 | C[C@H]1CN(C2CCN(c3ncccc3C(N)=O)CC2)[C@@H](Cc2ccc(Cl)cc2)CO1 [compound 114, 2-(4-((2S,5S)-5-(4-chlorobenzyl)-2-methylmorpholino)piperidin-1-yl)nicotinamide 2,2,2-trifluoroacetate] | > 100
9 | C[C@H]1CN(C2CCN(c3cc(Cl)ccc3C#N)CC2)[C@@H](Cc2ccc(Cl)cc2)CO1 [compound 115, 4-chloro-2-(4-((2S,5S)-5-(4-chlorobenzyl)-2-methylmorpholino)piperidin-1-yl)benzonitrile 2,2,2-trifluoroacetate] | > 100
10 | C[C@H]1CN(C2CCN(c3nccc4ccccc34)CC2)[C@@H](Cc2ccc(Cl)cc2)CO1 [compound 116, (2S,5S)-5-(4-chlorobenzyl)-4-(1-(isoquinolin-1-yl)piperidin-4-yl)-2-methylmorpholine 2,2,2-trifluoroacetate] | > 100
11 | COC(=O)c1cccnc1N1CCC(N2C[C@H](C)OC[C@@H]2Cc2ccc(Cl)cc2)CC1 [compound 117, methyl 2-(4-((2S,5S)-5-(4-chlorobenzyl)-2-methylmorpholino)piperidin-1-yl)nicotinate 2,2,2-trifluoroacetate] | > 100
12 | C[C@H]1CN(C2CCN(c3c(F)cccc3C#N)CC2)[C@@H](Cc2ccc(Cl)cc2)CO1 [compound 118, 2-(4-((2S,5S)-5-(4-chlorobenzyl)-2-methylmorpholino)piperidin-1-yl)-3-fluorobenzonitrile 2,2,2-trifluoroacetate] | > 100
13 | C[C@H]1CN(C2CCN(c3ccccc3C#N)CC2)[C@@H](Cc2ccc(Cl)cc2)CO1 [compound 119, 2-(4-((2S,5S)-5-(4-chlorobenzyl)-2-methylmorpholino)piperidin-1-yl)benzonitrile 2,2,2-trifluoroacetate] | > 100
14 | C[C@H]1CN(C2CCN(c3ncccc3CO)CC2)[C@@H](Cc2ccc(Cl)cc2)CO1 [compound 120, (2-(4-((2S,5S)-5-(4-chlorobenzyl)-2-methylmorpholino)piperidin-1-yl)pyridin-3-yl)methanol 2,2,2-trifluoroacetate] | > 100
15 | COC(=O)c1ccnc(F)c1N1CCC(N2C[C@H](C)OC[C@@H]2Cc2ccc(Cl)cc2)CC1 [compound 121, methyl 3-(4-((2S,5S)-5-(4-chlorobenzyl)-2-methylmorpholino)piperidin-1-yl)-2-fluoroisonicotinate] | > 100
16 | COC(=O)c1ccnc(N2CCC(N3C[C@H](C)OC[C@@H]3Cc3ccc(Cl)cc3)CC2)c1F [compound 122, methyl 2-(4-((2S,5S)-5-(4-chlorobenzyl)-2-methylmorpholino)piperidin-1-yl)-3-fluoroisonicotinate] | > 100
17 | C[C@H]1CN(C2CCN(c3c(F)cccc3F)CC2)[C@@H](Cc2ccc(Cl)cc2)CO1 [compound 123, (2S,5S)-5-(4-chlorobenzyl)-4-(1-(2,6-difluorophenyl)piperidin-4-yl)-2-methylmorpholine 2,2,2-trifluoroacetate] | > 100

Row | Structure (SMILES) | IC50 [µM]
18 | COC(=O)c1ccnc(N2CCC(N3C[C@H](C)OC[C@@H]3Cc3ccc(Cl)cc3)CC2)c1 [compound 124, methyl 2-(4-((2S,5S)-5-(4-chlorobenzyl)-2-methylmorpholino)piperidin-1-yl)isonicotinate] | > 100
19 | C[C@H]1CN(C2CCN(c3cc(C(=O)O)ccn3)CC2)[C@@H](Cc2ccc(Cl)cc2)CO1 [compound 125, 2-(4-((2S,5S)-5-(4-chlorobenzyl)-2-methylmorpholino)piperidin-1-yl)isonicotinic acid 2,2,2-trifluoroacetate] | > 100
20 | C[C@H]1CN(C2CCN(c3ccccc3F)CC2)[C@@H](Cc2ccc(Cl)cc2)CO1 [compound 126, (2S,5S)-5-(4-chlorobenzyl)-4-(1-(2-fluorophenyl)piperidin-4-yl)-2-methylmorpholine 2,2,2-trifluoroacetate] | > 100
21 | C[C@H]1CN(C2CCN(c3cccc(F)c3)CC2)[C@@H](Cc2ccc(Cl)cc2)CO1 [compound 127, (2S,5S)-5-(4-chlorobenzyl)-4-(1-(3-fluorophenyl)piperidin-4-yl)-2-methylmorpholine 2,2,2-trifluoroacetate] | > 100
22 | C[C@H]1CN(C2CCN(c3nccc(C(=O)O)c3F)CC2)[C@@H](Cc2ccc(Cl)cc2)CO1 [compound 128, 2-(4-((2S,5S)-5-(4-chlorobenzyl)-2-methylmorpholino)piperidin-1-yl)-3-fluoroisonicotinic acid 2,2,2-trifluoroacetate] | > 100
23 | C[C@H]1CN(C2CCN(c3c(C(=O)O)ccnc3F)CC2)[C@@H](Cc2ccc(Cl)cc2)CO1 [compound 129, 3-(4-((2S,5S)-5-(4-chlorobenzyl)-2-methylmorpholino)piperidin-1-yl)-2-fluoroisonicotinic acid] | > 100
24 | C[C@H]1CN(C2CCN(c3cc(CO)ccn3)CC2)[C@@H](Cc2ccc(Cl)cc2)CO1 [compound 130, (2-(4-((2S,5S)-5-(4-chlorobenzyl)-2-methylmorpholino)piperidin-1-yl)pyridin-4-yl)methanol 2,2,2-trifluoroacetate] | > 100
25 | C[C@H]1CN(C2CCN(c3cc(C(C)(C)O)ccn3)CC2)[C@@H](Cc2ccc(Cl)cc2)CO1 [compound 131, 2-(2-(4-((2S,5S)-5-(4-chlorobenzyl)-2-methylmorpholino)piperidin-1-yl)pyridin-4-yl)propan-2-ol 2,2,2-trifluoroacetate] | > 100
26 | C[C@H]1CN(C2CCN(c3cc(C(N)=O)ccn3)CC2)[C@@H](Cc2ccc(Cl)cc2)CO1 [compound 132, 2-(4-((2S,5S)-5-(4-chlorobenzyl)-2-methylmorpholino)piperidin-1-yl)isonicotinamide 2,2,2-trifluoroacetate] | > 100
27 | Cc1cccc(N2CCC(N3C[C@H](C)OC[C@@H]3Cc3ccc(Cl)cc3)CC2)n1 [compound 135, (2S,5S)-5-(4-chlorobenzyl)-2-methyl-4-(1-(6-methylpyridin-2-yl)piperidin-4-yl)morpholine hydrochloride] | > 100
28 | Cc1ccc(N2CCC(N3C[C@H](C)OC[C@@H]3Cc3ccc(Cl)cc3)CC2)nc1 [compound 136, (2S,5S)-5-(4-chlorobenzyl)-2-methyl-4-(1-(5-methylpyridin-2-yl)piperidin-4-yl)morpholine hydrochloride] | > 100
29 | C[C@H]1CN(C2CCN(c3cc(C(F)(F)F)ncn3)CC2)[C@@H](Cc2ccc(Cl)cc2)CO1 [compound 145, (2S,5S)-5-(4-chlorobenzyl)-2-methyl-4-(1-(6-(trifluoromethyl)pyrimidin-4-yl)piperidin-4-yl)morpholine hydrochloride] | > 100
30 | C[C@H]1CN(C2CCN(c3nccc(C(F)(F)F)n3)CC2)[C@@H](Cc2ccc(Cl)cc2)CO1 [compound 146, (2S,5S)-5-(4-chlorobenzyl)-2-methyl-4-(1-(4-(trifluoromethyl)pyrimidin-2-yl)piperidin-4-yl)morpholine hydrochloride] | 1 to 10
31 | O=C1COC[C@H](Cc2ccc(Cl)cc2)N1C1CCN(c2ccccn2)CC1 [compound 147, (S)-5-(4-chlorobenzyl)-4-(1-(pyridin-2-yl)piperidin-4-yl)morpholin-3-one hydrochloride] | > 100
32 | CN1C[C@H](Cc2ccc(Cl)cc2)N(C2CCN(c3ccccn3)CC2)CC12CCC2 [compound 148, (S)-7-(4-chlorobenzyl)-5-methyl-8-(1-(pyridin-2-yl)piperidin-4-yl)-5,8-diazaspiro[3.5]nonane hydrochloride] | 0.1 to 1
33 | O=C1NCCN(C2CCN(c3ccccn3)CC2)[C@H]1Cc1ccc(Cl)cc1 [compound 149, (S)-3-(4-chlorobenzyl)-4-(1-(pyridin-2-yl)piperidin-4-yl)piperazin-2-one 2,2,2-trifluoroacetate] | > 100
34 | CC(C)C1OC[C@H](Cc2ccc(Cl)cc2)N1C1CCN(c2ccccn2)CC1 (stereo partly drawn) [compound 150, (4S)-4-(4-chlorobenzyl)-2-isopropyl-3-(1-(pyridin-2-yl)piperidin-4-yl)oxazolidine hydrochloride] | > 100
